In patent publication US8466202B2, “Anthracenedione compounds” (Sunten Phytotech Co., Ltd., priority 2006, dated 2013):

How the values were obtained:
healthy male S.D. rats [1] = experiment: Intestinal motility test after the feces tests (Example 3); format: in vivo, rat; details: after the 10-day feces tests; control rats 61.1%; dose not stated
Method: After the above-discussed feces tests, intestinal motility tests were conducted. Before the experiment, the rats were fasted for at least sixteen hours. The rats were then given the aforementioned drugs or extracts. After 3 hours, each rat was given 3 ml/kg of 0.5% methylcellulose solution-0.5% Evans blue dye. Each rat was sacrificed 30 minutes later and its abdominal cavity was cut open. The entire small intestine was extracted and carefully straightened. The entire stretch between the pylorous and cecum was measured as the small intestine length. The distance traveled by Evans blue dye along the intestines was also measured. During dissection, any unusual observations were recorded and photographed. The intestinal motility function was calculated in the following formula: Intestine motility=(Evans blue dye length/small intestine length)×100%. After finishing the feces tests, intestinal motility tests were conducted in the same manner described above. During dissection, any unusual observations were recorded and photographed. For comparison within the groups, a Post hoc Comparison was applied with p<0.05 indicating significant differences.

healthy male S.D. rats [2] = experiment: Feces production in rats over the 10-day period (Example 3); format: in vivo, rat; details: Sennosides 3.35 mg/kg
Outline: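 Male S.D. rats (n=6 per arm) received sennosides 3.35 mg/kg/day, STD05 or ARE at 8 or 24 mg/kg/day, single anthraquinones at 4 mg/kg/day, or CP at 8 mg/kg/day over 10 days, with untreated controls. On days 1, 5 and 10, rats in metabolic cages gave 24-h feces, which were weighed wet, counted and dried at 100° C. to derive water content.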

[3] = Group I, Day 1, STD05 8 mg/kg, ARE 8 mg/kg, Aloe-emodin 4 mg/kg, Rhein 4 mg/kg
[4] = Group I, Day 5, STD05 8 mg/kg, ARE 8 mg/kg, Aloe-emodin 4 mg/kg, Rhein 4 mg/kg
[5] = Group I, Day 10, STD05 8 mg/kg, ARE 8 mg/kg, Aloe-emodin 4 mg/kg, Rhein 4 mg/kg
[6] = Group II, Day 1, STD05 24 mg/kg, ARE 24 mg/kg, Chrysophanol 4 mg/kg, Emodin 4 mg/kg
[7] = Group II, Day 5, STD05 24 mg/kg, ARE 24 mg/kg, Chrysophanol 4 mg/kg, Emodin 4 mg/kg
[8] = Group II, Day 10, STD05 24 mg/kg, ARE 24 mg/kg, Chrysophanol 4 mg/kg, Emodin 4 mg/kg

Sennosides
intestinal motility (healthy male S.D. rats [1]): 67.9%
Pellet count (healthy male S.D. rats [2]; [3]): 101
Water content (healthy male S.D. rats [2]; [3]): 45.69%
Wet Weight (healthy male S.D. rats [2]; [3]): 18.72 g
Pellet count (healthy male S.D. rats [2]; [4]): 119
Water content (healthy male S.D. rats [2]; [4]): 48.68%
Wet Weight (healthy male S.D. rats [2]; [4]): 26.16 g
Pellet count (healthy male S.D. rats [2]; [5]): 146
Water content (healthy male S.D. rats [2]; [5]): 57.4%
Wet Weight (healthy male S.D. rats [2]; [5]): 36.38 g
Pellet count (healthy male S.D. rats [2]; [6]): 134
Water content (healthy male S.D. rats [2]; [6]): 61.09%
Wet Weight (healthy male S.D. rats [2]; [6]): 36.19 g
Pellet count (healthy male S.D. rats [2]; [7]): 118
Water content (healthy male S.D. rats [2]; [7]): 61.53%
Wet Weight (healthy male S.D. rats [2]; [7]): 36.42 g
Pellet count (healthy male S.D. rats [2]; [8]): 132
Water content (healthy male S.D. rats [2]; [8]): 53.99%
Wet Weight (healthy male S.D. rats [2]; [8]): 36.21 g
